The record followed here is patent publication US20230003721A1, “MITOTHERAPEUTICS FOR THE TREATMENT OF BRAIN DISORDERS” (The University of Florida Research Foundation, Inc., priority 2019, published 2023).

As a reminder, the EC50 is the concentration needed to bring the measured effect to its halfway point.

The subject of data set [1] is primary forebrain neurons. As to the kind of experiment: cells. Conditions: for Dendritic Mt CA / Neurite Area: rescreen, 12.5 μM, 24 h, vs DMSO wells. The method, then: Primary forebrain cell culture and maintenance. Forebrains of P0 Mt or Mt/Ai14 pups without olfactory bulbs and meninges were collected and placed in ice cold Ca^2+ and Mg^2+ free HBSS supplemented with 2 μg/ml gentamicin, 25 mM D-glucose, 1 mM pyruvate and 20 mM HEPES. Brain tissue was digested with 0.6 mg/ml papain at 37° C. for 20 min. Forebrains were washed with plating media [Neurobasal (Gibco), 5% FBS, 4 mM GlutaMAX (Gibco), 2 μg/ml gentamicin]. The tissue was gently triturated, allowed to settle and the supernatant was filtered through a 40 μm mesh-sized cell strainer. Cells were centrifuged at 420×g for 4 min and resuspended in plating media. 15,000 cells per well were plated with 2×10^8 viral particles/ml onto black Greiner μClear (Cat #781946) or Ultra-Low Base Aurora with evaporation barrier (Cat #ABE201201B) 384-well plates (80 μl/well) pre-coated with poly-D-lysine for the primary screen and rescreen, respectively. Plating and media changes were performed using an automated Biomek FX^P liquid handling workstation. Four hr after plating, 75% of the plating media was replaced by feeding media [Neurobasal-A (Gibco), 4 mM GlutaMAX (Gibco), 2 μg/ml gentamicin, 2% B27 (Gibco)]. At DIV4, 50% of the media was exchanged with fresh feeding media supplemented with 16 μM 5-Fluoro-2′-deoxyuridine (FUdR) to prevent glial cell over-growth. At DIV8 and DIV12, additional 50% media changes were made without FUdR. Cells were maintained at 37° C. and 5% CO2; plates were topped with Breathe-Easy adhesive membranes (Greiner plates) to minimize evaporation.
Compounds and compound transfer.
Imaging. Images were captured using a GE Incell 6000 system (60× objective, 0.95 NA, 16-bit images) equipped with environmental control (37° C., 5% CO2). Mt-GFP (green channel) was imaged by confocal imaging (3 slices, Δz=0.7 μm, aperture=1.0 AU, λexc=488 nm, λem=515-535 nm). Cyto-tdTomato (red channel) and MitoTracker Orange (red channel) were imaged using confocal mode (3 slices, Δz=0.7 μm, aperture=1.0 AU, λexc=561 nm, λem=569-641 nm, MitoTracker Orange) or with widefield mode (Cyto-tdTomato). TMRM imaged for the co-localization experiments with Mt-GFP was imaged using the confocal mode (3 slices, […] aperture=1.0, λexc=488, λem=569-641 nm). For the live-dead assay, primary neurons were imaged with a 20× (widefield mode, NA 0.45) objective using λexc=561 nm and λem=569-641 nm for the propidium iodide stained dead cells (red channel), and λexc=488 nm and λem=515-535 nm for the fluorescein diacetate stained live cells (green channel). 10 fields were collected from each well, and 4 wells were imaged/condition in the live-dead assay. For all other experiments, 4 fields/well were imaged unless otherwise stated.
Automated data analysis pipeline. Most experiments utilized only Mt-GFP; some utilized both Mt-GFP and Cyto-tdTomato. The Z-projected images were preprocessed using a custom Fiji macro. For preprocessing of Mt-GFP images: background was subtracted (rolling ball, radius=3), images were median filtered (radius=1) and somatic mitochondria were removed. For removal of the somatic mitochondria, they were first segmented and then a somatic mitochondrial mask overlaid on the image.

Data set [2] concerns isolated forebrain mitochondria. As to the kind of experiment: ATP production of isolated mitochondria (luciferase-based kinetic assay). In kind it is biochemical, mouse. Conditions: 12 μM, starting 20 min after addition; DMSO 22498±358. On the procedure:
Isolation of mitochondria. For the ATP synthesis experiments of FIG. 6, forebrains from P0 pups were dissected as described above. 2×10^7 cells were harvested for high-purity mitochondrial isolation using the Qiagen QProteome kit. The mitochondrial pellet was resuspended in 500 μl mitochondria storage buffer (provided by kit) and kept on ice until further use.
ATP production of isolated forebrain mitochondria of P0 pups was measured by ATP Determination Kit (Molecular Probes). […] The reactions were initiated by the addition of 1 mM ADP (deprived of ATP contamination by adding 3 U/ml hexokinase to 10 mM of ADP in 50 mM Tris-HCl, 20 mM MgCl2 and 22 mM glucose, incubating the solution at 37° C. for 1 hr and heat inactivating the hexokinase at 100° C. for 3 min). Luminescence was recorded every 15-30 sec for 1 hr at 580±40 nm.

The test system of data set [3] is primary neurons. In words: TMRM fluorescence assay of inner mitochondrial membrane potential (ΔΨm). The following applies: for TMRM Primary: primary screen; for TMRM Primary / TMRM Rescreen: 24 h; for Emax / EC50: Mus musculus, Primary neuron; for Emax: read-out: TMRM (Effect-size); for EC50: read-out: TMRM-EC50.
Data set [4] relates to primary neurons. In words: CellTiter-Glo luminescence-based ATP assay. Type of data set: cell-based, mouse. The following applies: for ATP: ATP orthogonal screen, 24 h; for EC50 / Emax: Mus musculus, Primary neuron, dose response; for EC50: 15 concentrations from 6 nM to 100 uM; for Emax: maximal percent increase relative to in-plate DMSO controls, read-out: ATP (Effect-size). Put shortly:
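Primary neurons treated from DIV13 for 24 h with compound or DMSO. After part of the medium was removed, CellTiter-Glo reagent was added; plates were shaken 10 min at 200 rpm, kept 2 min in the dark at room temperature, and luminescence read as total ATP.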
For orientation: ATP-based viability assays read luminescence as a measure of living cells.

Data set [5] deals with primary neurons. In words: Mitochondrial morphology and neurite area after functional modulators. The arrangement: key to Neurite Area: non-significant (n.s.). Type of data set: cell-based, mouse. The following applies: significant change. The method, then:
Mitochondrial morphology and neurite area measurements. Mitochondrial morphology and neurite area were quantified using methods described by Varkuti et al, 2020. Briefly, Cre-dependent mitochondrial targeted GFP2 (mito-GFP) ROSA26 knock-in mice were crossed with Ai14 (007908, The Jackson Laboratory) expressing cytosolic-tdTomato, and the forebrain of P0 pups were isolated and primary neurons were cultured as described above. AAV9 virus containing the iCRE sequence driven by the neuron specific CaMKII promoter was added to the cell culture at plating and 75% of the media replaced 4 h after plating. […] Z-projected images of the green channel were preprocessed (background subtraction: rolling ball, radius=3; median filtering: radius=1) and somatic mitochondria were removed (see details in Varkuti et al, Science Advances 6 (2020) eaaw8702). Red channel images were also preprocessed (tubeness filter, soma removal). Preprocessed images were segmented by GE Developer software (object-based, kernel size: 3). […] The length and circularity measurements for mitochondria were aggregated using the median and the area for neurites using the sum. After removing empty fields and outlier values from the fields, aggregated field values were averaged to well values (4 fields/well, 12 wells/compound). Robust Z-scores were calculated using DMSO-treated wells for each well ((mediancompound−medianDMSO)/median absolute deviationDMSO), well values were averaged for each compound.
A high-content assay was developed in parallel to monitor aspects of mitochondrial dynamics in primary cultured neurons that conditionally express (Cre recombinase dependent) mitochondrial-tagged GFP and cytosolic tdTomato reporters (Varkuti et al., 2020). We monitored two aspects of neuritic mitochondrial dynamics: (1) the health of mitochondria as measured by the average circularity of axonal mitochondria, since defective mitochondria targeted for mitophagy become circular in shape, and (2) the balance between fission/fusion measured by the average length of dendritic mitochondria. […] FIG. 19A illustrates the results of surveying a collection of functional modulators selected from 5 different structural clusters (FIG. 17), quantified as robust z-scores relative to DMSO-treated control neurons.

The test system of data set [6] is primary neurons.

Structures can show the parent of a compound that is named as a salt.

Consider `N#CC(C#N)=NNc1ccc(OC(F)(F)F)cc1` [FCCP, carbonyl cyanide-p-trifluoromethoxyphenylhydrazone], for which, in data set [1], the “average area of axonal mitochondria” value stood at 0.39 μm^2, the “average area of dendritic mitochondria” value came to 1.06 μm^2, the “average well axonal mitochondrial CA” value stood at 629±83 μm^2 and the “average well dendritic mitochondrial CA” value is 123±44 μm^2. Moreover, in data set [1], the “increase in axonal mitochondrial CA” value was determined as 225 μm^2, the “median axonal mitochondrial circularity” value is 0.94±0.004, the “median dendritic mitochondrial length” value came out at 2.77±0.07 μm and the “number of axonal mitochondria” value stood at 51767. Moreover, in data set [1], the “number of dendritic mitochondria” value stood at 3713; the “sum of dendritic and axonal mitochondrial CA” value is reported as 754 μm^2. For the same molecule, the “reduction in the average dendritic mitochondrial CA per well” value in data set [1] (FCCP treatment vs DMSO) is listed as ~90%. Besides, the “ATP production kinetics, amplitude of single exponential fit” value in data set [2] was 17958±216.
As to `CCN(CC)CCOCCOC(=O)C(CC)(CC)c1ccccc1.O=C(O)CC(O)(CC(=O)O)C(=O)O` [OXELAIDIN CITRATE], in data set [1], the “Dendritic Mt CA” value amounted to 2.59 robust Z-scores and the “Neurite Area” value is recorded as −1.31 robust Z-scores. Moreover, the “TMRM Primary” value in data set [3] (12.5 μM) came to 4.27 Z-scores. Moreover, the “TMRM Rescreen” value in data set [3] is reported as 6.44 Z-scores. Further, in data set [4], the ATP is listed as 2.73 Z-scores.
The like results for `CN1CCC(=C2c3ccccc3Sc3ccccc32)CC1` [PIMETHIXENE MALEATE] were, in that order, 2.57 robust Z-scores, −2.10 robust Z-scores, 3.95 Z-scores, 5.12 Z-scores and 4.56 Z-scores.
As for `OC(CCN1CCCCC1)(c1ccccc1)c1ccccc1` [PRIDINOL METHANESULFONATE], in data set [1], the “Dendritic Mt CA” value is given as 2.86 robust Z-scores and the “Neurite Area” value was found to be 1.80 robust Z-scores. Further, in data set [3], the Emax was found to be 20.6%, the EC50 turned out to be 3.9 µM and the “TMRM Rescreen” value was 6.92 Z-scores. The “TMRM Primary” value in data set [3] (12.5 μM) came to 5.88 Z-scores. Also, in data set [4], the ATP is given as 5.46 Z-scores, the response was half-maximal at 1.65 µM (EC50) and the Emax came out at 15.7%.
As for `CCCCOc1cc(C(=O)OCCN(CC)CC)ccc1N` [benoxinate hydrochloride], in data set [3], the Emax worked out at 21%, the EC50 is 0.49 µM and the “TMRM Rescreen” value was 6.64 Z-scores. For the same molecule, in data set [3] (12.5 μM), the “TMRM Primary” value was 3.62 Z-scores. Further, in data set [4], the ATP came to 5.57 Z-scores, the EC50 worked out at 0.08 µM and the Emax came to 21.4%. Further, in data set [5], the “Mitochondrial Morphology” value is on record as “elongated” and the “Neurite Area” value is given as “n.s”.
As for `Cc1ccc(-c2cc(C(F)(F)F)nn2-c2ccc(S(N)(=O)=O)cc2)cc1` [celecoxib], in data set [3] (12.5 μM, 4 h), the “hit in TMRM primary screen when assayed at 4 h” value is given as “celecoxib*”. In data set [3], the Emax stood at 27.5%, the EC50 is 5.18 µM and the “TMRM Rescreen” value was determined as 4.72 Z-scores. The “TMRM Primary” value in data set [3] (12.5 μM) was determined as 6.67 Z-scores. Also, in data set [4], the ATP is reported as 7.57 Z-scores, the EC50 came out at 0.49 µM and the Emax came to 20.7%. For the same molecule, the “Neurite Area” value in data set [5] was “n.s”.
As to “Aβ(1-40): less-toxic oligomeric amyloid-β peptide used as control”, in data set [6], the “mitochondrial fragmentation caused by oligomeric peptide” value is “failed to cause mitochondrial fragmentation”.
